Earlier results in patent publication US20150313913A1, “POSITIVE ALLOSTERIC MODULATORS OF THE GABA-A RECEPTOR IN THE TREATMENT OF AUTISM” (UNIVERSITY OF WASHINGTON THROUGH ITS CENTER FOR …, priority 2013, published 2015).
Like-named read-outs stand apart in the source and are kept apart here.

What was measured:
[1] = test system: GABA-A receptor; conditions: cited from earlier work; for Effect at GABA-A receptor: Table 1, exemplary benzodiazepines
[2] = cited from earlier work; for Dose in humans for anti-anxiety, anti-convulsive, or sedative effects, per day: Table 1, typical daily dose

Row | SMILES | Effect at GABA-A receptor [1] | Dose in humans for anti-anxiety, anti-convulsive, or sedative effects: equivalent dose to 10 mg diazepam ([2]; Table 1, values marked *) [mg] | also measured
1 | O=C1CN=C(c2ccccc2)c2cc(Cl)ccc2N1CC1CC1 [Prazepam] | Agonist (Prodrug) | 20 | –
2 | Cc1c2c(cn1C)NC(=O)CN=C2c1ccccc1 [Premazepam] | Partial agonist | 15 | –
3 | Cc1nnc2n1-c1ccc(Br)cc1C(c1ccccn1)=NC2 [Pyrazolam] | Agonist | 1 | –
4 | CN1C(=O)C(O)N=C(c2ccccc2)c2cc(Cl)ccc21 (centres unmarked) [Temazepam] | Agonist | 20 | –
5 | CN1C(=O)CN=C(C2=CCCCC2)c2cc(Cl)ccc21 [Tetrazepam] | Agonist | 100 | Dose in humans for anti-anxiety, anti-convulsive, or sedative effects, per day [2]: 50 to 300 mg/day
6 | CCC1C(C)=NN=C(c2ccc(OC)c(OC)c2)c2cc(OC)c(OC)cc21 (centres unmarked) [Tofisopam] | Agonist | – | Dose in humans for anti-anxiety, anti-convulsive, or sedative effects, per day [2]: Typical dose 50- 300 mg/day in divided doses
7 | CCN(C(C)=O)c1cccc(-c2ccnc3c(C#N)cnn23)c1 [Zaleplon] | – | – | Effect at GABA receptor ([1]; Table 2, exemplary SS-PAMs): Full agonist α1 selective Acts on α2,3 at higher doses Ultra short- acting; Dose in humans for anti-anxiety, anti-convulsive, or sedative effects (marked *) ([2]; Table 2): 20 mg
8 | CN1CCN(C(=O)OC2c3nccnc3C(=O)N2c2ccc(Cl)cn2)CC1 (centres unmarked) [Zopiclone] | – | – | Effect at GABA receptor ([1]; Table 4, exemplary non-BDZ GABA-A enhancers): Full agonist; Dose in humans for anti-anxiety, anti-convulsive, or sedative effects: equivalent dose to 10 mg diazepam ([2]; Table 4, values marked *): 15 mg
